Assay results as given in patent US20230165864A1, “APPLICATION OF HETEROCYCLIC COMPOUND” (GUANGZHOU JOYO PHARMATECH CO., LTD, priority 2020, published 2023).

What was measured:
[1] = Phase III clinical trial (N=287); cited from earlier work
[2] = Clinical trial study of tablets containing compound 11A: fasting blood glucose and safety; type: in vivo, human
Protocol: The embodiments were all derived from a clinical trial study. The subjects were screened and eligible to enter groups according to the entry criteria specified in the clinical protocol. The test drug was administered orally on day 1, and adverse events and combined administration were observed and recorded after administration. After safety evaluation was conducted on day 7 of the single administration period, the subjects received continuous administration of the test drug until the subjects withdrew from the clinical trial. Safety assessments were conducted during the clinical trial according to the time specified in the clinical protocol.
Embodiments 2 to 9 were derived from an ongoing clinical trial study with dose groups of 0.1 mg, 0.2 mg, 0.4 mg, 0.5 mg, 0.7 mg, 0.9 mg, 1.1 mg, and 1.4 mg.

[3] = Bioavailability experiments (pharmacokinetics) in beagle dogs; type: in vivo; settings: male and female beagle dogs
Protocol: Bioavailability Experiments
During the experimental period, animals were housed in single cages with animal identification codes marked on the cage tags. The 12 non-naïve beagle dogs (6/sex) were randomly divided into 2 groups (3/sex/group).
(§1) (1) Non-naïve beagle dogs were administered intravenously (solvent 50% PEG400+50% PBS) at a dose volume of 2 mL/kg per dog (dose of 0.1 mg/kg per dog), and then blood was collected to measure the plasma drug concentration of non-naïve beagle dogs at different time points of 15 minutes, 30 minutes, 1 hour, 2 hours, 4 hours, 6 hours, 8 hours, and 24 hours.
as §1, with “(2)” for “(1)”, “orally” for “intravenously (solvent 50% PEG400+50% PBS)”, “1 tablet” for “2 mL/kg”, “0.5 mg” for “0.1 mg/kg”, “hours; the oral bioavailability of tablets was calculated.” for “hours.”
Plasma drug concentration data was processed in a non-compartment model using WinNonlin™ Version 6.2.1 (Pharsight, Mountain View, Calif.) pharmacokinetic software. The peak concentration (Cmax), peak time (Tmax) and quantifiable time were directly read out from the plasma drug concentration-time diagram.
The following pharmacokinetic parameters were calculated using the log-linear trapezoidal method: elimination phase half-life (T1/2), apparent volume of distribution (Vdss) and clearance rate (CL), mean residence time of the drug from 0 to the end time point in vivo (MRT0-last), mean residence time of the drug from 0 to infinite time in vivo (MRT0-inf), the area under the time-plasma concentration curve from 0 to the end time point (AUC0-last), the area under the time-plasma concentration curve from 0 to infinite time (AUC0-inf), initial concentration (C0).

SMILES: Cc1nc(NC(=O)N2CCC[C@H]2C(N)=O)sc1-c1ccnc(C(C)(C)C(F)(F)F)c1 [Alpelisib]
- diarrhea incidence [1]: 57.7%
- diarrhea incidence above grade 3 [1]: 6.7%
- nausea incidence [1]: 44.7%
- nausea incidence above grade 3 [1]: 2.5%
- vomiting incidence [1]: 27.1%
- vomiting incidence above grade 3 [1]: 0.7%

SMILES: COCCOc1cnc2ccc(-c3cnc(OC)c(NS(=O)(=O)c4sc(C)nc4C)c3)cn2c1=O [Compound 11A]
- fasting blood glucose ([2]; Subject 1, tablet 0.1 mg once a day oral from Nov. 9, 2018, follow-up Mar. 14, 2019, baseline 5.64 mmol/L): 6.19 mmol/L
- fasting blood glucose ([2]; Subject 2, tablet 0.2 mg once a day oral from Jan. 16, 2019, follow-up Jan. 23, 2019, baseline 5.81 mmol/L): 6.45 mmol/L
- fasting blood glucose ([2]; Subject 3, tablet 0.4 mg once a day oral from May 30, 2019, follow-up Jun. 5, 2019, baseline 5.63 mmol/L): 6.99 mmol/L
- fasting blood glucose ([2]; Subject 5, tablet 0.7 mg once a day oral from Nov. 7, 2019, follow-up Nov. 13, 2019, baseline 6.06 mmol/L): 8.37 mmol/L
- fasting blood glucose ([2]; Subject 5, tablet 0.7 mg once a day oral from Nov. 7, 2019, follow-up Nov. 20, 2019, baseline 6.06 mmol/L): 9.44 mmol/L
- fasting blood glucose ([2]; Subject 6, 0.7 mg tablet administered continuously again from Nov. 30, 2019, follow-up Dec. 4, 2019): 11.44 mmol/L
- fasting blood glucose after stopping administration ([2]; Subject 6, 0.7 mg tablets stopped Nov. 27, 2019, measured Nov. 29, 2019): returned to normal
- fasting blood glucose ([2]; Subject 6, tablet 0.7 mg once a day oral from Nov. 21, 2019, follow-up Nov. 27, 2019, baseline 5.87 mmol/L): 11.4 mmol/L
- fasting blood glucose ([2]; Subject 7, tablet 0.7 mg once a day oral from Dec. 10, 2019, follow-up Jan. 20, 2020, baseline 5.92 mmol/L): 9.13 mmol/L
- fasting blood glucose ([2]; Subject 8, tablet 1.1 mg once a day oral from Dec. 17, 2019 (so in the source), measured Dec. 23, 2020, baseline 6.87 mmol/L): 12.66 mmol/L
- fasting blood glucose ([2]; Subject 9, tablet 1.4 mg once a day oral from Aug. 27, 2020, measured Sep. 2, 2020, baseline 5.94 mmol/L): 10.77 mmol/L
- incidence of hyperglycemia ([2]; subjects of dose groups 0.1-1.4 mg, during the administering period): 80%
- gastrointestinal side effects such as nausea, vomiting and diarrhea ([2]; the 8 subjects of embodiments 2 to 9): no significant gastrointestinal side effects
- Vd ([3]; both sexes, dog, plasma, single intravenous injection 0.1 mg/kg, read-out: apparent volume of distribution (Vdss)): 6.16 ± 1.91 L/kg
- AUC(0-t) ([3]; both sexes, dog, plasma, single intravenous injection 0.1 mg/kg, read-out: area under the curve AUC0-last): 0.114 ± 0.0276 µM·h
- half-life ([3]; both sexes, dog, plasma, single intravenous injection 0.1 mg/kg, read-out: mean plasma elimination phase half-life Tin (converted)): 3.21 ± 1.81 h
- clearance ([3]; both sexes, dog, plasma, single intravenous injection 0.1 mg/kg, read-out: plasma clearance rate (CL)): 24.6 ± 6.66 mL/min/kg
- bioavailability ([3]; both sexes, dog, plasma, single oral administration of tablet containing 0.5 mg of 11A (prescription of embodiment 1)): 80.9%
- Cmax ([3]; both sexes, dog, plasma, single oral administration of tablet containing 0.5 mg of 11A (prescription of embodiment 1), read-out: peak concentration (Cmax)): 11.1 ± 2.08 nM
- peak times ([3]; single oral administration of tablet containing 0.5 mg of 11A (prescription of embodiment 1)): 1.00 ± 0.00 h
